Assay results as given in patent US20230094006A1, “PHARMACEUTICAL COMPOSITION CONTAINING MACROLIDE COMPOUND, PRODUCTION METHOD THEREFOR, AND METHOD USING SAME” (priority 2020, published 2023).
Converted amounts (≈) assume the structure as drawn. Where two headings read alike, the source gives them in different places.

Legend:
[1] = system: Mycobacterium tuberculosis (Mtb); test: Mouse tuberculosis infection model, viable Mycobacterium tuberculosis in lung tissue; type: in vivo; conditions: C57BL/6 mice, nasal infection 2×10^4 CFU; 100 mg/kg oral for 6 days from day 4; sacrifice day 10; vs PBS negative control, p<0.001
Protocol: C57BL/6 mice (n=16) were prepared to investigate the anti-tuberculous activity of arenicolide A. Mice were nasally infected with 2×10^4/CFU of Mycobacterium tuberculosis (Mtb), and the mice were randomly divided into two groups (each, n=8). From the 4th day, arenicolide A was orally administered at a dose of 100 mg/body weight kg for 6 days. Phosphate-buffered saline (PBS) was administered as a negative control. Mice were sacrificed on day 10 from the day of infection (FIG. 2A).

[2] = system: M. tuberculosis; test: Resazurin microtiter MIC, arenicolide A and ethambutol alone and combined; type: cell-based; conditions: Mycobacterium tuberculosis, 120 h
[3] = system: Mycobacterium tuberculosis Mtb H37Rv strain; test: Resazurin microtiter assay (REMA), standard strain
Protocol: MIC was measured by using a resazurin microtiter assay (REMA). Briefly, 100 μl of 7H9 liquid medium was added to each well of a 96-well microtiter plate, and two-fold serial dilutions of antibiotics were directly added to each well. Plates were covered and incubated for 5 days at 37° C. Resazurin (0.01% (w/v)) was added to each well and the plates were incubated overnight. Fluorescence intensity was measured by using a SpectraMax M3 Multi-Mode Microplate Reader (Molecular Devices, CA, USA) (ex. 560/em. 590 nm).

[4] = system: M. tuberculosis mc2 6230 strain; test: Resazurin microtiter assay (REMA), dose-response curve; type: cell-based; conditions: Mycobacterium tuberculosis, MC26230STRAIN, 120 h, M. tuberculosis mc2 6230, 7H9 liquid medium, 5 days at 37° C.
[5] = system: BCG (bacillus Calmette-Guerin) strain; type: in vivo, Mycobacterium bovis; conditions: mice, nasal infection 1×10^6 CFU BCG; 100 mg/kg oral for 6 days from day 4; sacrifice day 10; vs negative control
[6] = system: M. abscessus strain; test: Mouse non-tuberculous Mycobacterium infection model, viable cells in lung tissue; type: in vivo; conditions: mice, nasal infection 1×10^7 CFU M. abscessus; 100 mg/kg oral for 5 days from day 3; sacrifice day 7; vs negative control, p<0.001
Protocol: As described in Example 2-2, 57BL/6 mice were nasally infected with 1×10^7/CFU of M. abscessus strain. From the 3rd day, arenicolide A was orally administered at a dose of 100 mg/body weight kg for 5 days. As a negative control, 2.5% (v/v) DMSO and 2.5% (v/v) ethanol were administered. Mice were sacrificed on day 7 from the day of infection. The number of viable tubercle bacilli in the lung tissue was investigated, and the results are shown in FIG. 3 (each, n=6, ***: p<0.001).

Row | Compound | number of viable Mycobacterium tuberculosis in the lung tissue [1] | MIC [2] | MIC50 [3] | MIC50 [4] | inhibitory activity against BCG bacteria (viable cells in lung tissue) [5] | number of viable cells in the lung tissue [6] | MIC ([2]; administered alone, Middlebrook 7H9 with ADC, 5 days at 37° C., resazurin, read-out: MIC)
1 | CCC[C@H](O)[C@@H](OC)[C@H]1O[C@]1(C)[C@@H](O)C/C=C/[C@@H]1OC(=O)/C=C/C=C/[C@@H](OC)[C@H](O)/C=C/C(C)=C/[C@@H](C)CCC[C@@H](OC)C(O)/C=C/C(C)=C/[C@@H](C)[C@H](O)[C@H]1OC (some centres unmarked) [arenicolide A] | significantly reduced | 0.78 µM | ~6.9 µM (≈ 5.55 µg/mL) | ~24.6 µM (≈ 19.8 µg/mL) | effective inhibitory activity | significantly decreased | –
2 | CCC[C@@H]1O[C@@](C)([C@@H](O)C/C=C/[C@@H]2OC(=O)/C=C/C=C/[C@@H](OC)[C@H](O)/C=C/C(C)=C/C(C)CCC[C@@H](OC)[C@H](O)/C=C/C(C)=C/[C@@H](C)[C@H](O)[C@H]2OC)[C@H](O)[C@@H]1OC (some centres unmarked) [arenicolide C] | – | – | – | – | effective inhibitory activity | – | –
3 | CC[C@@H](CO)NCCN[C@@H](CC)CO [ethambutol, reference compound] | – | – | – | – | – | – | 3.2 µM
